Measured values taken from paper PMC8895463 (Journal of Agricultural and Food Chemistry, 2022).

Molecular target: T1, CYP3A4 (Homo sapiens, UniProt P08684)
T1 construct: recombinant; E. coli microsomes; with NADPH cytochrome P450 reductase (POR, P16435), coexpressed
Test: fluorogenic Vivid BOMR substrate assay with recombinant CYP3A4/POR E. coli microsomes
Type: biochemical

T1 sequence (P08684 13-503 S18F): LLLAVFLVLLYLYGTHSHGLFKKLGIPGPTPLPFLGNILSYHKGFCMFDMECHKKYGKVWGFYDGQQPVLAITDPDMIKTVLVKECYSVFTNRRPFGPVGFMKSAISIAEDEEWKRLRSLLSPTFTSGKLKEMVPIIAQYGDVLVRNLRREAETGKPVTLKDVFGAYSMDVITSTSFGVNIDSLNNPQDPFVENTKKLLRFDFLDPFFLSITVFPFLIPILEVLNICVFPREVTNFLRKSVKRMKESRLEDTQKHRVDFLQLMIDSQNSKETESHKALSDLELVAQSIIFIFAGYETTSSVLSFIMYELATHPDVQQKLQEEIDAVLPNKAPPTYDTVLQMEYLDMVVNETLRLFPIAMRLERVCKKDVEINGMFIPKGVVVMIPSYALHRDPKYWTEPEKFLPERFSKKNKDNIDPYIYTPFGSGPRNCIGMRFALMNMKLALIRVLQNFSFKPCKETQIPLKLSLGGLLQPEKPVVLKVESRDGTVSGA
T1 sequence (P16435 2-677, further chain): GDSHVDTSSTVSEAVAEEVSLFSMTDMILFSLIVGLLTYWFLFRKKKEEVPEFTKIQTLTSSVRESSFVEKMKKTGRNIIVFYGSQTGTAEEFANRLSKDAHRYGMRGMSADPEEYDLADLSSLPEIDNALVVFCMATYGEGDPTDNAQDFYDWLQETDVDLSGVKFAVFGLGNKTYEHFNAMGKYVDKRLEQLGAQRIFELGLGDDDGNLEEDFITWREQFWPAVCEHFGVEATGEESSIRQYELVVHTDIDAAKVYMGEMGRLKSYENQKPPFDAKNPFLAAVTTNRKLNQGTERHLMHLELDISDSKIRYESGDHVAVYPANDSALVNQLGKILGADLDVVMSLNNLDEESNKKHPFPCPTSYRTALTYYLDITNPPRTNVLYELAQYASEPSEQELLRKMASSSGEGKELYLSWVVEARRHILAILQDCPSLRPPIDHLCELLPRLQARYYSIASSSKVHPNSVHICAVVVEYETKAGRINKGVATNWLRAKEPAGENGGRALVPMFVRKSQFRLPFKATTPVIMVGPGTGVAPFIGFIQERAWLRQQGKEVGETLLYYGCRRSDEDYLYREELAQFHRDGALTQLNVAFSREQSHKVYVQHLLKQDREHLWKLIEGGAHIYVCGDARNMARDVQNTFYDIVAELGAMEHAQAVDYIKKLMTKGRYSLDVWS

Question: For `COc1ccc(-c2cc(=O)c3c(O)cc(O)cc3o2)cc1-c1c(O)cc(O)c2c(=O)cc(-c3ccc(O)cc3)oc12` [bilobetin], which IC50 is on record?
Answer: The IC50 was 12.9 µM.
